In brackets after ≈: the same amount, converted by molar mass.
What was measured:
[1] = test system: white blood cells; assay: PMA-stimulated white blood cell chemiluminescence; assay type: cell-based; details: Homo sapiens; 10^6 WBC, PMA 10 nM; read-out: White blood cell chemiluminescence (IC50 mg/ml)
Procedure: Anti-inflammatory activity has been assessed by measuring luminol dependent chemiluminescence generated by free radicals released from whole blood and from white blood cells. The assay has been performed using the following protocol: 10 μl of fresh human blood is mixed with 0.980 ml of Hanks saline solution containing 5×10^−5 M luminol and the test sample (at various concentrations). The chemiluminescent response is recorded continuously for 30 minutes at a temperature of 37° C. The results are expressed as IC50 (mg/ml), i.e. as the minimum sample, concentration inhibiting chemiluminescence by 50% with respect to the control. To isolate white blood cells (WBC) from whole blood one proceeds in the following manner: 1 ml of fresh blood is layered onto a Hipaque gradient (p=1.119) and centrifuged at 250×g for 60 minutes at room temperature. Following centrifugation, the pellet containing the white blood cells is washed twice, using a large volume of cold Hanks saline solution. Finally, the washed WBCs are resuspended in 01 ml di HBSS containing foetal calf serum. 10^6 WBC are added to a chemiluminometer cuvette. 10 μl of PMA (final concentration equal to 10 nM) are added to induce the formation of free radicals. The chemiluminescent response is recorded continuously for 30 minutes at a temperature of 37° C. […]

[2] = molecular target: T1, 5 alpha reductase type II (Homo sapiens, UniProt P31213); assay: Type II 5 alpha reductase inhibition (14C testosterone conversion); assay type: biochemical; details: pH 5.0
T1 construct: made in house; host or cells: genetically modified yeast
T1 sequence (P31213 1-254): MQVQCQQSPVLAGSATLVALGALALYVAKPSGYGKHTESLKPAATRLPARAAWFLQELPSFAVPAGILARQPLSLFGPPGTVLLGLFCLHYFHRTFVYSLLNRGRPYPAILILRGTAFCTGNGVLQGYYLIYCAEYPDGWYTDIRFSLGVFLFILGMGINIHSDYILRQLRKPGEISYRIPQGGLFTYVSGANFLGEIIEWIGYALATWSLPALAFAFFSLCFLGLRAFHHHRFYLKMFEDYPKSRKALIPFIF
From the text: Determination of the 5 alpha reductase inhibitory activities by Syringa vulgaris extracts, verbascoside and isoverbascoside in comparison to Serenoa repens extracts. Said determination, has been performed using enzymes (5 alpha reductase, type I and type II) produced by genetically modified yeast. Enzyme activities have been determined in the presence of Syringa vulgaris and Serenoa repens extracts, verbascoside isoverbascoside.
Determination of the type II 5 alpha reductase activity has been performed in an analogous manner to that just described, with the exception of a different pH value for the 0.1 M Tris-citrate buffer (pH 5.0).
In both assays, the steroids have been extracted using 5 ml of methylene chloride. The extracts have then been dried under a stream of nitrogen and the dried residues obtained have, been dissolved in 20 μl of a chloroform-methanol mixture (2:1 v/v). An aliquot of said mixture has been deposited on the surface of a silica gel TLC plate. […] For quantification of the results, the spots have been scraped from the TLC plate and extracted with 2 ml of ethyl acetate. The extracts obtained have been analysed, using scintillation fluid, with the aid of a Wallach […]. The enzyme activity has been calculated from the percentage conversion (C %) of the substrate into final product:
C %=[counted product/(counted substrate+product)]×100.

[3] = test system: PC12 cells; assay: Protection against oxidative stress induced cell death in PC12 cells; assay type: cell-based, rat; details: 72 hours
From the text: This assay has the aim of determining the protective capacity, of Syringa vulgaris extracts, in relation to oxidative stress induced cell death in rat pheochromocytoma cell cultures (PC12 cell line).
The assay has been performed as described in the literature (Echevery C. et al. Cytoprotection by neutral fraction of tannat red wine against oxidative stress-induced cell death. J. Agric. Food Chem., 2004, 52(24): 7395-9. Ochiai T. et al. Crocin prevents the death of rat pheo-chromycitoma (PC12) cells by its antioxidant effects stronger than those of alpha-tocopherol. Neurosci. Lett., 2004, 362(1):61-4).
The results obtained are summarised in table 11, and are expressed as the ratio between the numbers of viable cells after 72 hours in the samples with respect to control.

[4] = Hydroxyl radical scavenger activity (Fenton reaction, luminol chemiluminescence); assay type: biochemical; details: mean of 6 independent assays
From the text: Syringa vulgaris Extracts 1 and 2, prepared as described in examples 1 and 2, have been used to assess in vitro antioxidant action with specific oxygen radical generating systems such as the superoxide anion (O2^−), the hydroxyl radical (HO), the peroxynitrite radical (ONOO^−) and the inhibition of lipid peroxidation. The superoxide anion has been measured by a chemiluminescent assay based on the hypoxanthine (HPX)/xanthine oxidase (XOD) reaction using the Lumimax Superoxide Anion Detection Kit (Stratagene, La Jolla, Calif., USA) and following the manufacturer's instructions. Hydroxyl radical scavenger activity has been measured by means of the Fenton reaction for the production of hydroxyl radicals and chemiluminescent dosage (using a Victor^3 chemiluminometer, Wallac, Finland) with luminol. Peroxynitrite ions have been determined by means of dosage with a spontaneous generator of peroxynitrites (3-morpholinosidnonimine hydrochloride; SIN-1) and a stable reagent for the nitroxyl ions (2-(4-carboxyphenyl)-4,4,5,5-tetramethylimidazoline-1-oxyl-3-oxide potassium salt PTIO spin trap) then dosed by means of electron spin resonance (ESR) using a. Nippon Denshi JES-FR30. […].
Extract 1 and Extract 2 listed in Table are derived from Syringa vulgaris cell cultures. In said extracts, verbascoside is present at 0.82% and 35% by weight respectively. […]

IC50 [1] | IC50 [2] | Hydroxyl radial (IC50) [4] | Compound | Ratio of viable treated cells over control ([3]; 100 μg/ml) | Ratio of viable treated cells over control ([3]; 500 μg/ml) | Ratio of viable treated cells over control ([3]; 1000 μg/ml)
0.25 mg/mL (≈ 400 µM) | 32 µM | – | CC1OC(OC2C(O)C(COC(=O)C=Cc3ccc(O)c(O)c3)OC(OCCc3ccc(O)c(O)c3)C2O)C(O)C(O)C1O [Isoverbascoside, b-(3,4-dihydroxyphenyl)-ethyl-O-α-L-ramnopyranosyl(1″-3′)-b-D-(6′-O-caffeoil)glucopyranoside] | 4 | 10 | 10
0.23 mg/mL (≈ 368 µM) | 33.6 µM | 2.2 mg/L | C[C@@H]1O[C@@H](O[C@@H]2[C@@H](O)[C@H](OCCc3ccc(O)c(O)c3)O[C@H](CO)[C@H]2OC(=O)/C=C/c2ccc(O)c(O)c2)[C@H](O)[C@H](O)[C@H]1O [Verbascoside, b-(3,4-dihydroxyphenyl)-ethyl-O-α-L-ramnopyranosyl (1″-3′)-b-D-(4′-O-caffeoil)-glucopyranoside] | – | – | –

Reference: patent publication US10456434B2, “Extracts obtained from cell line cultures from plants belonging to the Oleaceae family (e.g. Syringa vulgaris), their preparation and use” (CRODA ITALIANA S. P. A., priority 2005, dated 2019)
